Test results taken from patent publication US5700639A, “Method for the detection of metabolically labelled DNA” (Boehringer Mannheim GmbH, priority 1993, dated 1997).

Columns and labels:
HL60 cells [1] = experiment: Detection of metabolically labelled DNA fragments in apoptotic cells (3 hours incubation); format: cell-based; conditions: 200 ng/ml camptothecin, 37° C.
Protocol: (§1) The cells to be examined (e.g. HL60 cells, ATCC CCL 240) are firstly metabolically labelled by incubation with 0.01 mmol/l bromodeoxyuridine for 18 hours at 37° C. After removing the excess bromodeoxyuridine that is not incorporated into DNA by washing with culture medium, the cells (200 μl in each case, see Table 1 for cell number) are incubated for 4 hours at 37° C. with 2 μg/ml camptothecin (Sigma, Munich) in a microtitre plate. Afterwards 20 μl 10-fold concentrated lysis buffer (PBS/50 mmol/l EDTA/2 % Tween 20) is added to each preparation for the lysis, the microtitre plate is centrifuged and 100 μl supernatant is taken from each well for the test (PBS=137 mmol/l NaCl; 2.7 mmol/l KCl; 8 mmol/l Na2 HPO4 and 1.5 mmol/l KH2 PO4).
In order to detect the metabolically labelled DNA, a further microtitre plate is coated with an antibody against DNA (5 μg/ml, Boehringer Mannheim GmbH, Ident. No. 1525760) in 100 mmol/l NaCO3 buffer pH 9.6. Subsequently the metabolically labelled DNA is bound to the wall antibody by addition of 100 μl supernatant (see above) per well and incubation for 90 minutes at room temperature. After washing with PBS, the remaining liquid is removed from the wells of the microtitre plate by for example knocking. […]

HL60 cells [2] = experiment: Detection of metabolically labelled DNA fragments in the cytoplasm of apoptotic cells (4 hours incubation); format: cell-based; conditions: for A (405 nm), metabolically labelled DNA fragments in the cytoplasm: 37° C.
Protocol: as §1
In order to detect the metabolically labelled DNA, a further microtitre plate is coated with an antibody against DNA (5 μg/ml, Boehringer Mannheim GmbH, Ident. No. 1525760) in 100 mmol/l NaCO3 buffer pH 9.6. Subsequently the metabolically labelled DNA is bound to the wall antibody by addition of 100 μl supernatant (see above) per well and incubation for 90 minutes at room temperature. After washing with PBS, the remaining liquid is removed from the wells of the microtitre plate by for example knocking. Afterwards the bound double-stranded DNA is denatured or partially degraded by microwave treatment (5 min. 650 watts, AEG Micromat 275Z) or alternatively by addition of 100 μl (corresponding to 1 unit per well of the microtitre plate) exonuclease III (Boehringer Mannheim GmbH, Catalogue No. 779717). The preparation in which the DNA has been denatured by microwave treatment is subsequently cooled for 10 minutes at 8° C. in a refrigerator. The preparation treated with exonuclease III is subsequently washed three times with PBS.
HL60 cells (ATCC CCL 240) were firstly metabolically labelled with bromodeoxyuridine as stated in example 1. After washing out excess bromodeoxyuridine, the cells are incubated in a microtitre plate at 37° C. for 3 or 4 hours with various concentrations of camptothecin (5000 to 0 ng/ml). Subsequently the microtitre plate is centrifuged, an aliquot of the cell culture supernatant (100 μl/well) is taken for the detection of metabolically labelled DNA in the cell culture supernatant according to example 2 and the cells remaining in the microtitre plate are lysed by addition of 100 μl/well 2-fold concentrated lysis buffer (PBS/10 mmol/l EDTA/0.4% Tween 20). The detection of the metabolically labelled DNA in the lysate obtained in this way is then carried out as described in example 1.

Compound: CC[C@@]1(O)C(=O)OCc2c1cc1n(c2=O)Cc2cc3ccccc3nc2-1 [camptothecin]
- A (405 nm), metabolically labelled DNA, cell culture supernatant (HL60 cells [1]; cell culture supernatant (according to example 2)): 0.020
- A (405 nm), metabolically labelled DNA, cytoplasm (lysate after detergent treatment) (HL60 cells [1]; cytoplasm (lysate after detergent treatment)): 0.770
- A (405 nm), metabolically labelled DNA fragments in the cytoplasm (HL60 cells [2]; 1.6 ng/ml camptothecin): 0.295
- A (405 nm), metabolically labelled DNA fragments in the cytoplasm (HL60 cells [2]; 8 ng/ml camptothecin): 0.342
- A (405 nm), metabolically labelled DNA fragments in the cytoplasm (HL60 cells [2]; 40 ng/ml camptothecin): 0.625
- A (405 nm), metabolically labelled DNA fragments in the cytoplasm (HL60 cells [2]; 200 ng/ml camptothecin): 1.006
- A (405 nm), metabolically labelled DNA fragments in the cytoplasm (HL60 cells [2]; 1000 ng/ml camptothecin): 1.457
- A (405 nm), metabolically labelled DNA fragments in the cytoplasm (HL60 cells [2]; 5000 ng/ml camptothecin): 1.677
- amount of cytoplasmic, metabolically labelled DNA fragments (dose dependence) (HL60 cells [2]; camptothecin 5000 to 0 ng/ml): correlates with the amount of camptothecin
